Laboratory results from patent US11214594B2, “Antimicrobial peptide having synergistic antibacterial effect with antibiotics on multidrug resistant bacteria, and use thereof” (priority 2016, dated 2022).
Like-named read-outs stand apart in the source and are kept apart here. Where a SMILES comes first, the peptide text is derived from it. [ ]: non-standard residue; d: D form.

Key:
A. baumannii [1] = assay: MIC of antibiotic during combined treatment with antimicrobial peptide; assay type: cell-based, Acinetobacter baumannii; conditions: A. baumannii
Method in brief: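 Checkerboard-type MIC of peptide–antibiotic mixtures in MH medium: the antibiotic was serially diluted in MH medium and added to wells, then the reversed arrangement was also tested.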

E. coli = assay type: cell-based, Escherichia coli; conditions: E. coli
Method in brief: (§1)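 Strains in MH medium at 2×10^6 CFU/ml were mixed with peptide diluted stepwise (2:1) from its MIC, then antibiotic dilutions in MH medium were added to give the antibiotic MIC. The reversed set-up, peptide titrated against fixed antibiotic, gave the peptide MIC.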

MDREC 1229 = assay type: cell-based, Escherichia coli
Method in brief: as §1

A. baumannii [2] = assay: MIC of antimicrobial peptide during combined treatment with antibiotic; assay type: cell-based, Acinetobacter baumannii
Method in brief: as §1

MDRAB 12035 = assay: as above; assay type: cell-based, Acinetobacter baumannii
Method in brief: as §1

[3] = combined with peptide at 2 μg/ml
[4] = combined with peptide at 4 μg/ml
[5] = combined with peptide at 6 μg/ml
[6] = combined with peptide at 8 μg/ml
[7] = combined with peptide at 16 μg/ml
[8] = combined with peptide at 32 μg/ml
[9] = combined with peptide at 64 μg/ml
[10] = linezolid 64 μg/ml (Conc./MIC 1/8)
[11] = linezolid 512 μg/ml (Conc./MIC 1)
[12] = vancomycin 512 μg/ml (Conc./MIC 1/2)
[13] = vancomycin 1024 μg/ml (Conc./MIC 1)
[14] = erythromycin 4 μg/ml (Conc./MIC 1/8)
[15] = erythromycin 8 μg/ml (Conc./MIC 1/4)
[16] = erythromycin 16 μg/ml (Conc./MIC 1/2)
[17] = erythromycin 32 μg/ml (Conc./MIC 1)

## CC[C@H](C)[C@H](NC(=O)[C@H](CCCCN)NC(=O)[C@H](Cc1c[nH]c2ccccc12)NC(=O)[C@@H](N)CCCNC(=N)N)C(=O)N[C@@H](Cc1ccccc1)C(=O)N[C@@H](CCCCN)C(=O)N[C@@H](CCCCN)C(=O)N[C@H](C(=O)N[C@H](CCCCN)C(=O)N[C@@H](CCCCN)C(=O)N[C@@H](CC(C)C)C(=O)N[C@@H](CC(C)C)C(=O)N[C@@H](Cc1c[nH]cn1)C(=O)N[C@@H](CCC(=O)O)C(=O)N[C@@H](C)C(=O)N[C@@H](CCCCN)C(=O)N[C@@H](CCCCN)C(=O)N[C@@H](Cc1c[nH]c2ccccc12)C(N)=O)[C@@H](C)CC [PapMA-20, RWK IFK KIk KLL HEA KKW-NH2] (H-RWKIFKKI[dK]KLLHEAKKW-NH2; N-terminus assumed)
A. baumannii [1]; [3]
  Antibiotic MIC, Erythromycin: 16 µg/mL
  Antibiotic MIC, Linezolid: 64 µg/mL
  Antibiotic MIC, Vancomycin: >128 µg/mL
A. baumannii [1]; [4]
  Antibiotic MIC, Erythromycin: 2 µg/mL
  Antibiotic MIC, Linezolid: 16 µg/mL
  Antibiotic MIC, Vancomycin: 32 µg/mL
A. baumannii [1]; [5]
  Antibiotic MIC, Erythromycin: 1 µg/mL
  Antibiotic MIC, Linezolid: 8 µg/mL
  Antibiotic MIC, Vancomycin: 8 µg/mL
A. baumannii [1]; [6]
  Antibiotic MIC, Erythromycin: 0.125 µg/mL
  Antibiotic MIC, Linezolid: 2 µg/mL
  Antibiotic MIC, Vancomycin: 2 µg/mL
A. baumannii [1]; [7]
  Antibiotic MIC, Erythromycin: 0 µg/mL
  Antibiotic MIC, Linezolid: 0 µg/mL
  Antibiotic MIC, Vancomycin: 0 µg/mL
A. baumannii [1]; [8]
  Antibiotic MIC, Erythromycin: 0 µg/mL
  Antibiotic MIC, Linezolid: 0 µg/mL
  Antibiotic MIC, Vancomycin: 0 µg/mL
A. baumannii [1]; [9]
  Antibiotic MIC, Erythromycin: 0 µg/mL
  Antibiotic MIC, Linezolid: 0 µg/mL
  Antibiotic MIC, Vancomycin: 0 µg/mL
E. coli; with Erythromycin […] (Conc./MIC 1)
  Peptide MIC: 0 µg/mL
E. coli; with Linezolid […] (Conc./MIC 1)
  Peptide MIC: 0 µg/mL
E. coli; with Vancomycin 1024 μg/ml (Conc./MIC 1)
  Peptide MIC: 0 µg/mL
MDREC 1229; erythromycin 32 μg/ml (Conc./MIC 1/8)
  Peptide MIC during treatment with antibiotic: 2 µg/mL
MDREC 1229; erythromycin 64 μg/ml (Conc./MIC 1/4)
  Peptide MIC during treatment with antibiotic: 2 µg/mL
MDREC 1229; erythromycin […] (Conc./MIC 1)
  Peptide MIC during treatment with antibiotic: 0 µg/mL
MDREC 1229; erythromycin […] (Conc./MIC 1/2)
  Peptide MIC during treatment with antibiotic: 1 µg/mL
MDREC 1229; [10]
  Peptide MIC during treatment with antibiotic: 2 µg/mL
MDREC 1229; [11]
  Peptide MIC during treatment with antibiotic: 0 µg/mL
MDREC 1229; linezolid […] (Conc./MIC 1/2)
  Peptide MIC during treatment with antibiotic: 1 µg/mL
MDREC 1229; linezolid […] (Conc./MIC 1/4)
  Peptide MIC during treatment with antibiotic: 2 µg/mL
MDREC 1229; [12]
  Peptide MIC during treatment with antibiotic: 2 µg/mL
MDREC 1229; [13]
  Peptide MIC during treatment with antibiotic: 1 µg/mL
MDREC 1229; vancomycin […] (Conc./MIC 1/4)
  Peptide MIC during treatment with antibiotic: 4 µg/mL
MDREC 1229; vancomycin […] (Conc./MIC 1/8)
  Peptide MIC during treatment with antibiotic: 4 µg/mL
A. baumannii [2]; [14]
  Peptide MIC during treatment with antibiotic: 4 µg/mL
A. baumannii [2]; [15]
  Peptide MIC during treatment with antibiotic: 4 µg/mL
A. baumannii [2]; [16]
  Peptide MIC during treatment with antibiotic: 2 µg/mL
A. baumannii [2]; [17]
  Peptide MIC during treatment with antibiotic: 0 µg/mL
A. baumannii [2]; linezolid 32 μg/ml (Conc./MIC 1/8)
  Peptide MIC during treatment with antibiotic: 4 µg/mL
A. baumannii [2]; linezolid 64 μg/ml (Conc./MIC 1/4)
  Peptide MIC during treatment with antibiotic: 2 µg/mL
A. baumannii [2]; linezolid […] (Conc./MIC 1)
  Peptide MIC during treatment with antibiotic: 0 µg/mL
A. baumannii [2]; linezolid […] (Conc./MIC 1/2)
  Peptide MIC during treatment with antibiotic: 1 µg/mL
A. baumannii [2]; [12]
  Peptide MIC during treatment with antibiotic: 0.25 µg/mL
A. baumannii [2]; [13]
  Peptide MIC during treatment with antibiotic: 0 µg/mL
A. baumannii [2]; vancomycin […] (Conc./MIC 1/4)
  Peptide MIC during treatment with antibiotic: 0.5 µg/mL
A. baumannii [2]; vancomycin […] (Conc./MIC 1/8)
  Peptide MIC during treatment with antibiotic: 4 µg/mL
MDRAB 12035; [14]
  Peptide MIC during treatment with erythromycin: 4 µg/mL
MDRAB 12035; [15]
  Peptide MIC during treatment with erythromycin: 4 µg/mL
MDRAB 12035; [16]
  Peptide MIC during treatment with erythromycin: 2 µg/mL
MDRAB 12035; [17]
  Peptide MIC during treatment with erythromycin: 0 µg/mL
MDRAB 12035; [10]
  Peptide MIC during treatment with linezolid: 4 µg/mL
MDRAB 12035; [11]
  Peptide MIC during treatment with linezolid: 0 µg/mL
MDRAB 12035; linezolid […] (Conc./MIC 1/2)
  Peptide MIC during treatment with linezolid: 1 µg/mL
MDRAB 12035; linezolid […] (Conc./MIC 1/4)
  Peptide MIC during treatment with linezolid: 2 µg/mL
MDRAB 12035; [12]
  Peptide MIC during treatment with vancomycin: 2 µg/mL
MDRAB 12035; [13]
  Peptide MIC during treatment with vancomycin: 1 µg/mL
MDRAB 12035; vancomycin […] (Conc./MIC 1/4)
  Peptide MIC during treatment with vancomycin: 2 µg/mL
MDRAB 12035; vancomycin […] (Conc./MIC 1/8)
  Peptide MIC during treatment with vancomycin: 4 µg/mL
